{"source": "paper PMC5218480", "about": "(PLoS ONE, 2017)", "system": "MV-4-11 cells", "test": "Gene expression microarray analysis (Affymetrix PrimeView) and GSEA", "type": "cell-based, human", "design": "RFU PODN (11730768_x_at) / Fold change /veh PODN (11730768_x_at) / RFU LINC00158 (11744669_a_at) / Fold change /veh LINC00158 (11744669_a_at) / RFU DUSP10 (11751237_a_at) / Fold change /veh DUSP10 (11751237_a_at) / RFU ID3 (11757404_x_at) / Fold change /veh ID3 (11757404_x_at) / RFU PLEKHG5 (11737974_s_at) / Fold change /veh PLEKHG5 (11737974_s_at) / RFU LRRC4B (11730491_at) / Fold change /veh LRRC4B (11730491_at) / RFU GIMAP4 (11747438_a_at) / Fold change /veh GIMAP4 (11747438_a_at) / RFU KRT8 (11758183_x_at) / Fold change /veh KRT8 (11758183_x_at) / RFU CNN1 (11734310_a_at) / Fold change /veh CNN1 (11734310_a_at) / RFU VPS37D (11726825_at) / Fold change /veh VPS37D (11726825_at) / RFU C10orf10 (11716522_x_at) / Fold change /veh C10orf10 (11716522_x_at) / RFU KIR2DL2 /// KIR2DL4 /// KIR2DL5A /// KIR2DL5B /// KIR2DS1 /// KIR2DS2 /// KIR2DS3 /// KIR2DS4 /// KIR3DL3 /// KIR3DL3 /// KIR3DS1 (11738374_at) / Fold change /veh KIR2DL2 /// KIR2DL4 /// KIR2DL5A /// KIR2DL5B /// KIR2DS1 /// KIR2DS2 /// KIR2DS3 /// KIR2DS4 /// KIR3DL3 /// KIR3DL3 /// KIR3DS1 (11738374_at) / RFU C1QL1 (11718748_at) / Fold change /veh C1QL1 (11718748_at) / RFU TMPRSS4 (11747572_a_at) / Fold change /veh TMPRSS4 (11747572_a_at) / RFU HAMP (11756126_x_at) / Fold change /veh HAMP (11756126_x_at) / RFU RNFT2 (11725882_a_at) / Fold change /veh RNFT2 (11725882_a_at) / RFU NR4A2 (11747474_a_at) / Fold change /veh NR4A2 (11747474_a_at) / RFU ABCC12 (11746883_a_at) / Fold change /veh ABCC12 (11746883_a_at) / RFU TMEM136 (11760407_x_at) / Fold change /veh TMEM136 (11760407_x_at) / RFU CLDN22 /// WWC2 (11732394_at) / Fold change /veh CLDN22 /// WWC2 (11732394_at) / RFU HLA-DPB1 (11760878_x_at) / Fold change /veh HLA-DPB1 (11760878_x_at) / RFU SPINT1 (11716480_a_at) / Fold change /veh SPINT1 (11716480_a_at) / RFU GAP43 (11754022_s_at) / Fold change /veh GAP43 (11754022_s_at) / RFU A4GNT (11735810_at) / Fold change /veh A4GNT (11735810_at) / RFU PRB3 (11715151_x_at) / Fold change /veh PRB3 (11715151_x_at) / RFU TUBB4B (11761932_at) / Fold change /veh TUBB4B (11761932_at) / RFU CAPN14 (11732068_a_at) / Fold change /veh CAPN14 (11732068_a_at) / RFU TMCC2 (11721928_a_at) / Fold change /veh TMCC2 (11721928_a_at) / RFU IRGQ (11745062_a_at) / Fold change /veh IRGQ (11745062_a_at) / RFU FAM174B (11720279_a_at) / Fold change /veh FAM174B (11720279_a_at) / RFU TMPRSS4 (11748680_a_at) / Fold change /veh TMPRSS4 (11748680_a_at) / RFU FAM212B (11763350_a_at) / Fold change /veh FAM212B (11763350_a_at) / RFU PLEKHG5 (11743358_a_at) / Fold change /veh PLEKHG5 (11743358_a_at) / RFU ZSCAN30 (11745921_a_at) / Fold change /veh ZSCAN30 (11745921_a_at) / RFU CMKLR1 (11741424_a_at) / Fold change /veh CMKLR1 (11741424_a_at) / RFU LOC101060620 /// MAPK8IP1 (11723275_at) / Fold change /veh LOC101060620 /// MAPK8IP1 (11723275_at) / RFU SPTSSB (11747773_x_at) / Fold change /veh SPTSSB (11747773_x_at) / RFU PRSS12 (11739890_at) / Fold change /veh PRSS12 (11739890_at) / RFU BIN1 (11741810_x_at) / Fold change /veh BIN1 (11741810_x_at) / RFU WNT11 (11732464_a_at) / Fold change /veh WNT11 (11732464_a_at) / RFU C10orf10 (11716521_a_at) / Fold change /veh C10orf10 (11716521_a_at) / RFU C5orf56 (11738089_at) / Fold change /veh C5orf56 (11738089_at) / RFU CYB561 (11721691_x_at) / Fold change /veh CYB561 (11721691_x_at) / RFU ANKRD19P (11752326_a_at) / Fold change /veh ANKRD19P (11752326_a_at) / RFU OR2T12 /// OR2T33 /// OR2T8 (11738714_s_at) / Fold change /veh OR2T12 /// OR2T33 /// OR2T8 (11738714_s_at) / RFU VCAN (11748164_a_at) / Fold change /veh VCAN (11748164_a_at) / RFU JSRP1 (11732532_at) / Fold change /veh JSRP1 (11732532_at) / RFU KRTAP10-11 (11738290_x_at) / Fold change /veh KRTAP10-11 (11738290_x_at) / RFU MYO3A (11730013_a_at) / Fold change /veh MYO3A (11730013_a_at) / RFU EBF3 (11725865_a_at) / Fold change /veh EBF3 (11725865_a_at) / RFU CAMK2N1 (11719241_x_at) / Fold change /veh CAMK2N1 (11719241_x_at) / RFU C5orf56 (11738088_a_at) / Fold change /veh C5orf56 (11738088_a_at) / RFU OLFML3 (11715873_a_at) / Fold change /veh OLFML3 (11715873_a_at) / RFU LOC100653217 /// NTM (11731650_a_at) / Fold change /veh LOC100653217 /// NTM (11731650_a_at) / RFU MAPK11 (11762145_a_at) / Fold change /veh MAPK11 (11762145_a_at) / RFU FIZ1 (11724087_x_at) / Fold change /veh FIZ1 (11724087_x_at) / RFU OASL (11726364_x_at) / Fold change /veh OASL (11726364_x_at) / RFU SOX15 (11748057_x_at) / Fold change /veh SOX15 (11748057_x_at) / RFU CD79A (11719716_a_at) / Fold change /veh CD79A (11719716_a_at) / RFU HIST1H1D (11736915_at) / Fold change /veh HIST1H1D (11736915_at) / RFU CASKIN2 (11723855_a_at) / Fold change /veh CASKIN2 (11723855_a_at) / RFU LOC730098 (11760151_x_at) / Fold change /veh LOC730098 (11760151_x_at) / RFU OR4N2 (11742367_at) / Fold change /veh OR4N2 (11742367_at) / RFU PRRT2 (11749266_a_at) / Fold change /veh PRRT2 (11749266_a_at) / RFU SNX32 (11753110_a_at) / Fold change /veh SNX32 (11753110_a_at) / RFU CDHR5 (11726645_a_at) / Fold change /veh CDHR5 (11726645_a_at) / RFU RCAN1 (11760418_a_at) / Fold change /veh RCAN1 (11760418_a_at) / RFU FAM167A (11723789_a_at) / Fold change /veh FAM167A (11723789_a_at) / RFU FAM26E (11764081_at) / Fold change /veh FAM26E (11764081_at) / RFU ISYNA1 (11749810_s_at) / Fold change /veh ISYNA1 (11749810_s_at) / RFU ACY1 (11761880_at) / Fold change /veh ACY1 (11761880_at) / RFU 11764098_at / Fold change /veh 11764098_at / RFU SAMD14 (11745864_x_at) / Fold change /veh SAMD14 (11745864_x_at) / RFU NPB (11741838_a_at) / Fold change /veh NPB (11741838_a_at) / RFU TMPRSS6 (11731388_a_at) / Fold change /veh TMPRSS6 (11731388_a_at) / RFU KRTAP10-2 (11738614_at) / Fold change /veh KRTAP10-2 (11738614_at) / RFU ARHGAP8 /// PRR5-ARHGAP8 (11727945_x_at) / Fold change /veh ARHGAP8 /// PRR5-ARHGAP8 (11727945_x_at) / RFU KRTAP5-7 /// NADSYN1 (11734609_at) / Fold change /veh KRTAP5-7 /// NADSYN1 (11734609_at) / RFU RASL12 (11751679_a_at) / Fold change /veh RASL12 (11751679_a_at) / RFU CDKN2B (11736163_a_at) / Fold change /veh CDKN2B (11736163_a_at) / RFU PRF1 (11729649_at) / Fold change /veh PRF1 (11729649_at) / RFU, ZNF638 /// ZNF638-IT1 / Fold change vs veh, ZNF638 /// ZNF638-IT1 / RFU, PANK3 / Fold change vs veh, PANK3 / RFU, SH3YL1 / Fold change vs veh, SH3YL1 / RFU, ZEB2 / Fold change vs veh, ZEB2 / RFU, NRIP1 / Fold change vs veh, NRIP1 / RFU, PTTG1IP / Fold change vs veh, PTTG1IP / RFU, CAPN2 / Fold change vs veh, CAPN2 / RFU, MED14 / Fold change vs veh, MED14 / RFU, SNORA58 / Fold change vs veh, SNORA58 / RFU, C1orf63 / Fold change vs veh, C1orf63 / RFU, LRRFIP1 / Fold change vs veh, LRRFIP1 / RFU, NDUFAF7 / Fold change vs veh, NDUFAF7 / RFU, SLC12A2 / Fold change vs veh, SLC12A2 / RFU, IBTK / Fold change vs veh, IBTK / RFU, ESF1 / Fold change vs veh, ESF1 / Fold change vs veh, TMEM50B / RFU, TAOK1 / Fold change vs veh, TAOK1 / RFU, ACBD3 / Fold change vs veh, ACBD3 / RFU, TMA16 / Fold change vs veh, TMA16 / RFU, RWDD3 / Fold change vs veh, RWDD3 / RFU, BCAT1 / Fold change vs veh, BCAT1 / RFU, EDEM3 / Fold change vs veh, EDEM3 / RFU, TMEM33 / Fold change vs veh, TMEM33 / RFU, WDR75 / Fold change vs veh, WDR75 / RFU, AHCTF1 / Fold change vs veh, AHCTF1 / RFU, TFRC / Fold change vs veh, TFRC / RFU, ZDHHC17 / Fold change vs veh, ZDHHC17 / RFU, NOM1 / Fold change vs veh, NOM1 / RFU, ARL8B / Fold change vs veh, ARL8B / RFU, ZBTB11 / Fold change vs veh, ZBTB11 / RFU, TAMM41 / Fold change vs veh, TAMM41 / RFU, KIAA1704 /// LOC100996395 / Fold change vs veh, KIAA1704 /// LOC100996395 / RFU, ING1 / Fold change vs veh, ING1 / RFU, TRMT61B / Fold change vs veh, TRMT61B / RFU, FUBP3 / Fold change vs veh, FUBP3 / RFU, TP53 / Fold change vs veh, TP53 / RFU, TNKS2 / Fold change vs veh, TNKS2 / RFU, ZFP14 / Fold change vs veh, ZFP14 / RFU, ACTR2 / Fold change vs veh, ACTR2 / RFU, PPP3R1 / Fold change vs veh, PPP3R1 / RFU, PIK3R1 / Fold change vs veh, PIK3R1 / RFU, HNRNPA1 / Fold change vs veh, HNRNPA1 / RFU, RNF170 / Fold change vs veh, RNF170 / RFU, ZNF28 / Fold change vs veh, ZNF28 / RFU, RNGTT / Fold change vs veh, RNGTT / RFU, OGT / Fold change vs veh, OGT / RFU, BRD1 / Fold change vs veh, BRD1 / RFU, MARS / Fold change vs veh, MARS / RFU, ZNF655 / Fold change vs veh, ZNF655 / RFU, FAHD1 / Fold change vs veh, FAHD1 / RFU, BDP1 / Fold change vs veh, BDP1 / RFU, LRRCC1 / Fold change vs veh, LRRCC1 / RFU, ARID1A / Fold change vs veh, ARID1A / RFU, ZNF146 / Fold change vs veh, ZNF146 / RFU, ZNF330 / Fold change vs veh, ZNF330 / RFU, GPN3 / Fold change vs veh, GPN3 / RFU, C9orf123 / Fold change vs veh, C9orf123 / RFU, N4BP2L2 / Fold change vs veh, N4BP2L2 / RFU, ARFIP1 / Fold change vs veh, ARFIP1 / RFU, FAM179B / Fold change vs veh, FAM179B / RFU, BCL10 / Fold change vs veh, BCL10 / RFU, UHRF1BP1L / Fold change vs veh, UHRF1BP1L / RFU, BET1 / Fold change vs veh, BET1 / RFU, CNOT2 / Fold change vs veh, CNOT2 / RFU, ZNF268 / Fold change vs veh, ZNF268 / Fold change vs veh, ZNF507 / RFU, DGCR2 / Fold change vs veh, DGCR2 / RFU, WDSUB1 / Fold change vs veh, WDSUB1 / Fold change vs veh, HSP90B1 /// MIR3652 / RFU, ADSS / Fold change vs veh, ADSS / RFU, GK / Fold change vs veh, GK / RFU, ZNF148 / Fold change vs veh, ZNF148 / RFU, TAF9 / Fold change vs veh, TAF9 / RFU, SLC1A5 / Fold change vs veh, SLC1A5 / RFU, SLMO2 / Fold change vs veh, SLMO2 / RFU, ABCC4 / Fold change vs veh, ABCC4 / RFU, LOC101060439 /// RAP1B / Fold change vs veh, LOC101060439 /// RAP1B / RFU, RFX7 / Fold change vs veh, RFX7 / RFU, GTPBP10 / Fold change vs veh, GTPBP10 / RFU, CNEP1R1 / Fold change vs veh, CNEP1R1 / RFU, BIVM-ERCC5 /// ERCC5 / Fold change vs veh, BIVM-ERCC5 /// ERCC5 / RFU, ILF3 / Fold change vs veh, ILF3 / RFU 11762660_at / Fold change /veh 11762660_at / RFU VCAN (11757783_s_at) / Fold change /veh VCAN (11757783_s_at) / RFU DDX43 (11728927_at) / Fold change /veh DDX43 (11728927_at) / RFU KRT8 (11758188_x_at) / Fold change /veh KRT8 (11758188_x_at) / RFU NKD1 (11759106_at) / Fold change /veh NKD1 (11759106_at) / RFU SRD5A1 (11742802_a_at) / Fold change /veh SRD5A1 (11742802_a_at) / RFU TPSAB1 /// TPSB2 (11721975_s_at) / Fold change /veh TPSAB1 /// TPSB2 (11721975_s_at) / RFU GSTM3 (11746129_a_at) / Fold change /veh GSTM3 (11746129_a_at) / RFU IL23R (11737362_x_at) / Fold change /veh IL23R (11737362_x_at) / RFU TMEM51 (11727254_a_at) / Fold change /veh TMEM51 (11727254_a_at) / RFU PIWIL2 (11732686_x_at) / Fold change /veh PIWIL2 (11732686_x_at) / RFU ORM1 (11744905_x_at) / Fold change /veh ORM1 (11744905_x_at) / RFU CCDC152 (11743942_at) / Fold change /veh CCDC152 (11743942_at) / RFU ECM1 (11717891_a_at) / Fold change /veh ECM1 (11717891_a_at) / RFU IL23R (11748794_a_at) / Fold change /veh IL23R (11748794_a_at) / RFU TNFAIP8L3 (11732012_x_at) / Fold change /veh TNFAIP8L3 (11732012_x_at) / RFU MBOAT4 (11741988_at) / Fold change /veh MBOAT4 (11741988_at) / RFU 11764193_at / Fold change /veh 11764193_at / RFU TMEM53 (11763286_at) / Fold change /veh TMEM53 (11763286_at) / RFU MAGEB2 (11727129_at) / Fold change /veh MAGEB2 (11727129_at) / RFU TMEM200A (11744735_a_at) / Fold change /veh TMEM200A (11744735_a_at) / RFU CCDC152 (11751479_a_at) / Fold change /veh CCDC152 (11751479_a_at) / RFU FAM211A (11726209_a_at) / Fold change /veh FAM211A (11726209_a_at) / RFU RGS16 (11746705_a_at) / Fold change /veh RGS16 (11746705_a_at) / RFU VCAN (11755009_s_at) / Fold change /veh VCAN (11755009_s_at) / RFU RHOB (11743442_s_at) / Fold change /veh RHOB (11743442_s_at) / RFU RGS16 (11720943_a_at) / Fold change /veh RGS16 (11720943_a_at) / RFU RGS16 (11720944_at) / Fold change /veh RGS16 (11720944_at) / RFU, VPS4B / Fold change vs veh, VPS4B / RFU, CREB1 / Fold change vs veh, CREB1 / RFU, DNAJC13 / Fold change vs veh, DNAJC13 / RFU, GNAQ / Fold change vs veh, GNAQ / RFU, CDK5R1 / Fold change vs veh, CDK5R1 / RFU, ZRANB3 / Fold change vs veh, ZRANB3 / RFU, CUL4A / Fold change vs veh, CUL4A / RFU, CCNY / Fold change vs veh, CCNY / RFU, UFL1 / Fold change vs veh, UFL1 / RFU, COG3 / Fold change vs veh, COG3 / RFU, DIAPH2 / Fold change vs veh, DIAPH2 / RFU, SKA2 / Fold change vs veh, SKA2 / RFU, AFF3 / Fold change vs veh, AFF3 / RFU, LMF1 / Fold change vs veh, LMF1 / RFU, IPO11 / Fold change vs veh, IPO11 / RFU, DFFB / Fold change vs veh, DFFB / RFU, FOXP1 / Fold change vs veh, FOXP1 / RFU, CARD8 / Fold change vs veh, CARD8 / RFU, STRN3 / Fold change vs veh, STRN3 / RFU, ADK / Fold change vs veh, ADK / RFU, RASSF2 / Fold change vs veh, RASSF2 / RFU, WIPF1 / Fold change vs veh, WIPF1 / RFU, LARP1B / Fold change vs veh, LARP1B / RFU, RASA1 / Fold change vs veh, RASA1 / RFU, RB1 / Fold change vs veh, RB1 / RFU, PPFIA1 / Fold change vs veh, PPFIA1 / RFU, MAT2A / Fold change vs veh, MAT2A / RFU, CCT5 / Fold change vs veh, CCT5 / RFU, WDR92 / Fold change vs veh, WDR92 / RFU, CUX1 / Fold change vs veh, CUX1 / RFU, TTC7A / Fold change vs veh, TTC7A / RFU, TMEM135 / Fold change vs veh, TMEM135 / RFU, DEPTOR / Fold change vs veh, DEPTOR / RFU, CPM / Fold change vs veh, CPM / RFU, DNAJB6 / Fold change vs veh, DNAJB6 / RFU, CACNA2D3 / Fold change vs veh, CACNA2D3 / RFU, DTX4 / Fold change vs veh, DTX4 / RFU, TFCP2 / Fold change vs veh, TFCP2 / RFU, GMCL1 /// GMCL1P1 / Fold change vs veh, GMCL1 /// GMCL1P1 / RFU, AEBP2 / Fold change vs veh, AEBP2 / RFU, SNHG1 /// SNORD22 /// SNORD25 /// SNORD26 /// SNORD27 /// SNORD28 /// SNORD29 /// SNORD31 / Fold change vs veh, SNHG1 /// SNORD22 /// SNORD25 /// SNORD26 /// SNORD27 /// SNORD28 /// SNORD29 /// SNORD31 / Fold change (Aza/veh), C12orf56 (ProbeSet 11735607_a_at) / Fold change (ACY-1035/veh), C12orf56 (ProbeSet 11735607_a_at) / Fold change (Aza/veh), FGFR1OP (ProbeSet 11751329_s_at) / Fold change (ACY-1035/veh), FGFR1OP (ProbeSet 11751329_s_at) / Fold change (Aza/veh), VPS36 (ProbeSet 11739960_a_at) / Fold change (ACY-1035/veh), VPS36 (ProbeSet 11739960_a_at) / RFU SYPL1 (11715823_x_at) / Fold change /veh SYPL1 (11715823_x_at) / RFU IGFBP7 (11715501_s_at) / Fold change /veh IGFBP7 (11715501_s_at) / RFU REEP3 (11722064_at) / Fold change /veh REEP3 (11722064_at) / RFU IGLL1 (11728026_x_at) / Fold change /veh IGLL1 (11728026_x_at): dose or concentration left out as unconfirmed", "conditions": "MV-4-11 cells, 48 hours", "data": [{"molecule": "Nc1ccc(-c2cccs2)cc1NC(=O)c1ccc2c(c1)cc(C1CC1)n2CCN1CCOCC1", "note": "[ACY-1035]", "values": [{"measurement": "RFU FAM167A (11723789_a_at)", "result": 37.08, "unit": "RFU"}]}]}
